Measured values published in PubChem BioAssay AID1645848.
≈ marks a conversion by molar mass, not a printed value.

Details: buffer; pH 7.4; 6.0 h; 150.0 µM

SMILES | solubility kinetic [µg/mL]
NC(=O)c1sc2nc3c(c(-c4cccs4)c2c1N)CCCC3 | 0.293 (≈ 0.889 µM)
COc1ccccc1NC(=O)C1=C(C)Nc2c(C(=O)Nc3cccc(C)c3)cnn2C1c1ccccc1Cl (centres undefined) | < 1
NC1CCC(Nc2nc(Nc3ccc(C(=O)N4CCCCC4)cc3)c3ncn(-c4cccc(F)c4)c3n2)CC1 (centres undefined) | 57.5 (≈ 109 µM)
c1ccc(-c2nc(N3CCCCCC3)c3ccccc3n2)nc1 | > 45
CCn1cc(C(=O)O)c(=O)c2cnc(N3CCN(C(=S)Nc4ccccc4)CC3)nc21 | > 65
COC(=O)C1=C(C)NC(C)=C(C(=O)OCCCN2CCC(c3ccccc3)(c3ccccc3)CC2)C1c1cccc([N+](=O)[O-])c1.Cl (centres undefined) | < 1
COc1ccc(N2Cc3cccc(C(=O)Nc4ccc(C(C)C)cc4)c3C2=O)cc1 | < 1
CCCNC(=O)Nc1ccc(Oc2ncnc3cc(OC)c(OC)cc23)cc1Cl | 1.55 (≈ 3.73 µM)
Cc1ccc(-n2ncc3c(NCCCN(C)C)ncnc32)cc1Cl | > 51
Cc1ccc(-n2c(=O)c3oc4ccccc4c3n(CC(=O)Nc3ccc(F)c(Cl)c3)c2=O)cc1C | < 1
O=C1CCCC2=C1C(c1[nH]ncc1Cl)N=C(Nc1nc3ccc(Cl)cc3o1)N2 (centres undefined) | 1 (≈ 2.4 µM)
COc1ccc(-n2c(C)cc(-c3nnc4n3CCCCC4)c2C)cc1 | 31.9 (≈ 94.8 µM)
CC(=O)N[C@H]1CN(C2CCN(c3ccc(F)cc3C)CC2)C[C@@H]1C1CC1 | 20.3 (≈ 56.4 µM)
Oc1ccc(NCc2ccccc2OCc2ccccc2Cl)cc1 | 3.28 (≈ 9.65 µM)
Cc1ccc(NS(=O)(=O)c2ccc3c(c2)NC(=O)CO3)cc1C | 7.82 (≈ 23.5 µM)
Cc1ccc(-c2ccc(CNc3nc(-c4ccccc4C(C)C)ncc3F)cc2)cn1 | < 1
CCOC(=O)NNc1ccc(N(CC)CC(C)O)nn1 (centres undefined) | 4.72 (≈ 16.7 µM)
Cc1cccc(-n2c(C)cc(C=C(C#N)C#N)c2C)c1 | < 1
O=C1CCCC2=C1C(c1ncccc1Br)N=C(Nc1nc3ccccc3o1)N2 (centres undefined) | 7.87 (≈ 17.9 µM)
COc1cccc(C(=O)Nc2cccc(OCc3cc(=O)n4cccc(C)c4n3)c2)c1 | < 1
CC(C)Oc1ccc(-c2ccc(=O)n(CC(=O)NCCc3ccccc3)n2)cc1 | 16.8 (≈ 43 µM)
CNc1nc2c(s1)C(c1ccc(Cl)cc1)CC(=O)N2 (centres undefined) | 10.8 (≈ 36.6 µM)
CCc1oc2ccccc2c1C(=O)c1cc(I)c(O)c(I)c1 | > 77
CCOC(=O)C1CCN(C(=O)C2(NC(=O)Nc3ccccc3Cl)CCC2)CC1 | 43.2 (≈ 106 µM)
Cc1cn2nc(-c3nc(C4CCCN(C(=O)c5ccccc5)C4)no3)cc2c(=O)[nH]1 (centres undefined) | 27.5 (≈ 68 µM)

SMILES | solubility kinetic [µg/mL]
COc1ccccc1Nc1ccnc(N2CCN(C(=O)c3ccccc3Cl)CC2)n1 | 1.59 (≈ 3.75 µM)
COc1cc(-c2ccnc3c2c(C)nn3-c2ccc(C(F)(F)F)cc2)ccc1O | 28.1 (≈ 70.4 µM)
O=S(=O)(c1ccccc1)c1nnn2c1nc(NCc1cccs1)c1sccc12 | < 1
O=[S+]([O-])(Nc1nccs1)c1ccc(NCc2ccc(Cl)c(Cl)c2)cc1 | < 1
CC(=O)N1CCc2c(sc3c2c(=O)n(-c2ccccc2)c(=O)n3CC(=O)c2ccccc2)C1 | 3.53 (≈ 7.69 µM)
CNc1oc(-c2cccc3ccccc23)nc1C(=O)Nc1cccc(C#N)c1 | < 1
Cl.c1ccc(Nc2nc(NCc3ccco3)c3ccccc3n2)cc1 | < 1
Cc1ccc(S(=O)(=O)Nc2cnccc2C(=O)Nc2nc(C(=O)O)cs2)cc1 | > 62
Fc1ccc(F)c(Nc2nc(-c3ccncc3)nc3ccccc23)c1 | < 1
O=C(NCC1CCOCC1)C1CC(=O)N(c2n[nH]c3cc(Br)ccc23)C1 (centres undefined) | 25.3 (≈ 60.1 µM)
COCCNC(=O)[C@H]1C[C@H](Oc2ccccc2)CN1Cc1ccc2[nH]ccc2c1 | 17.1 (≈ 43.5 µM)
Nc1ncnc2c1c(-c1ccc(Oc3ccccc3)cc1)cn2C1CCCC1 | < 1
Cc1cc(N2CCN(c3ccccc3)CC2)nc(-n2nc(C)cc2C)n1 | 40 (≈ 115 µM)
COc1cccc(S(=O)(=O)Nc2cnccc2C(=O)Nc2nc(-c3ccccc3)cs2)c1 | 53.9 (≈ 116 µM)
COc1ccc(-c2noc(CSc3nnc(Cc4ccccc4)n3-c3ccc(F)cc3)n2)cc1 | < 1
CS(=O)(=O)c1ccc(-c2csc(N3CCC(C(N)=O)CC3)n2)cc1 | 7.22 (≈ 19.8 µM)
CCOC(=O)c1csc(NC(=O)c2ccncc2NS(=O)(=O)c2ccc(C)cc2)n1 | 3.2 (≈ 7.16 µM)
O=C1CCCC2=C1C(c1[nH]ncc1Br)N=C(Nc1nc3ccccc3o1)N2 (centres undefined) | < 1
Cc1cc(C)c(C(=O)Nc2cccc([S+](=O)([O-])Nc3ccc(Br)cc3)c2)[nH]1 | < 1
CCCCN(CC)CCNC(=O)c1cc2c(-c3ccc(Cl)cc3)nn(C)c2s1 | > 62
O=C(Nc1ccc2oc(-c3cccnc3)nc2c1)c1ccc(-c2ccccc2)o1 | < 1
CCc1cccc(-n2nnc(-c3nsc(NC(=O)c4cccc(OC)c4)n3)c2C)c1 | < 1
Cc1ccc(-c2cc(C(=O)NCc3cnn(C)c3)c3cc(Br)ccc3n2)cc1 | < 1
C#Cc1ccc(NC(=O)c2cnn3c(C)cc(C)nc23)cc1 | < 1
Cc1ccc(S(=O)(=O)Nc2ccc(C(=O)Nc3nc(-c4ccccc4)cs3)c(Cl)c2)cc1 | < 1

SMILES | solubility kinetic [µg/mL]
CC(C)NC(=O)c1nc(-c2ccc(Cl)nc2)c2cnccn12 | 16.5 (≈ 52.2 µM)
CCS(=O)(=O)N1CC(CC#N)(n2cc(-c3ncnc4[nH]ccc34)cn2)C1 | > 55
CC(C)c1ccc(-n2ncc3c(=O)n(CC(=O)Nc4cc(F)ccc4Cl)cnc32)cc1 | < 1
O=C(CSc1ccccc1)Nc1nnc(COc2ccc(Cl)cc2)s1 | < 1
CCC1=Nc2cc(C(=O)NC3CCCC3)ccc2Sc2ccc(Cl)cc21 | < 1
Cc1cnc(-c2ccccc2C2COC2)nc1NCc1ccc(-n2ccnn2)cc1 | > 59
Cc1ccc(NC(=O)c2cc(S(=O)(=O)NCCC3=CCCCC3)ccc2F)cc1F | < 1
CCn1c(=NC(=O)c2ccc(S(=O)(=O)N3CCCCC3)cc2)sc2cccc(OC)c21 | < 1
CCOc1ccc(CCNC(=O)c2cc3sccc3n2Cc2ccc(Cl)c(F)c2)cc1OCC | < 1
CCC(=O)NC(c1ccc(OC)cc1)c1cc(Cl)c2cccnc2c1O (centres undefined) | < 1
CCN(CC)S(=O)(=O)c1ccc(N2CCCC2)c(NS(=O)(=O)c2ccccc2)c1 | < 1
O=C1Nc2ccccc2C1Cc1cc(Cl)c(O)c(Cl)c1 (centres undefined) | > 45
COc1ccc(CN2CCc3nc(N4CCN(c5ccc(F)cc5)CC4)ncc3C2)c(OC)c1OC | < 1
Cc1cccc(C)c1C(=O)Nc1cccc([S+](=O)([O-])N(C)C)c1 | 41.4 (≈ 124 µM)
Cc1nn(CCc2nc(-c3ccc(OC(F)F)cc3)cs2)c2[nH]c(=O)cc(C(F)(F)F)c12 | < 1
CC(C)N(CCCNC(=O)Nc1ccc(C(C)(C)C)cc1)C[C@H]1O[C@@H](n2ccc3c(N)ncnc32)[C@H](O)[C@@H]1O | > 80
COc1ccc(-c2cc(C(F)(F)F)nc(SCCC(=O)Nc3cc(C)ccc3O)n2)cc1 | < 1
CCn1nnnc1Sc1ncnc2scc(-c3ccc(C)cc3)c12 | 3.32 (≈ 9.35 µM)
CN(Cc1ccc(/C=C/C(=O)NO)cc1)CC12CC3CC(CC(C3)C1)C2 | > 35
COc1ccnc(NC(=S)N2CCN(c3ccccc3C(F)(F)F)CC2)c1 | 7 (≈ 17.7 µM)
Fc1cc(Nc2nc(-c3ccncc3)nc3ccccc23)ccc1-c1ccc2[nH]ncc2c1 | < 1
CCc1ccccc1C(=O)N1CCc2cc(-c3nc(NC(=O)Cc4ccc5c(c4)OCO5)sc3C)ccc21 | < 1
CCCc1c(CC)c(=N)c2ccccc2n1C.I | > 34
Cc1cccc(OCC(=O)Nc2ccc3nc(Nc4cccc(Cl)c4)cc(C)c3c2)c1 | < 1
CCN1CCc2c(sc(NC(=O)Nc3ccc(Cl)c(Cl)c3)c2C(N)=O)C1 | < 1

SMILES | solubility kinetic [µg/mL]
COc1cc(-c2nc(-c3c(C)noc3C)cc3c2cc(C)n3CCN(C)C)ccn1 | > 90
COC[C@@H]1CN(C(=O)c2n[nH]c3ccccc23)C[C@H]1c1nc(C)no1 | > 100
COc1cccc(CNc2ccc(S(=O)(=O)Nc3nc4ccccc4s3)cc2)c1O | 2.08 (≈ 4.72 µM)
CNc1nc(C#N)c(-c2cccc3ccccc23)o1 | < 1
O=C1CCCC2=C1C(c1ccccc1C(F)(F)F)N=C(Nc1nc3ccccc3o1)N2 (centres undefined) | < 1
CSc1nnc2c3ccccc3n(CCc3ccccc3)c2n1 | < 1
O=[S+]([O-])(Nc1cccc2cccnc12)c1ccc(NCc2ccc(Cl)cc2O)cc1 | < 1
Cc1cnc(NC(=O)c2ccc(-c3cccc([N+](=O)[O-])c3)o2)s1 | < 1
CS(=O)(=O)Nc1cccc(-c2nccc(-n3ccnc3)n2)c1 | > 47
Cc1ccc(S(=O)(=O)Nc2cnccc2C(=O)Nc2nc(-c3cccc(F)c3)cs2)cc1 | 0.167 (≈ 0.356 µM)
CCc1cccc(C)c1Nc1c(-c2ccc(N(C)C)cc2)nc2ncccn12 | 1.88 (≈ 5.05 µM)
CCOC(=O)c1nc(Nc2ccc(N3CCC(C)CC3)cc2)c2ccccc2n1 | 2.18 (≈ 5.59 µM)
O=[S+]([O-])(Nc1ccccc1)c1ccc(NCc2ccc(Cl)cc2O)cc1 | 2.64 (≈ 6.79 µM)
O=C(NCc1ccccc1)C1CCN(c2nc(-c3ccc(Br)cc3)cs2)CC1 | 2.48 (≈ 5.43 µM)
CN1C(=O)c2ccccc2[S@](=O)c2ccc(C(=O)NCc3ccc(Cl)cc3)cc21 | 4.37 (≈ 10.3 µM)
CCC(CC)c1cc([C@H]2CN3CC[C@H]2C[C@@H]3CNC(C)=O)nc(-c2ccncc2)n1 | > 60
Fc1ccc(CN2CCNc3cc(Nc4ccccc4)ncc3C2)cc1F | 45.3 (≈ 124 µM)
Cc1ccc(-c2ccnc(N3CCC(C(N)=O)CC3)n2)cc1 | 2.67 (≈ 9.01 µM)
Cc1ccnc(NC(=S)N2CCC(Nc3cccc(C(F)(F)F)c3)CC2)c1 | 6.4 (≈ 16.2 µM)
CCOC(=O)N1CCN(Cc2nc3cc(NC(=O)c4ccc(OC)cc4)ccc3n2C(C)C)CC1 | 14.7 (≈ 30.7 µM)
COc1cc2cc(CN3CCC(N(C)C)C3)c(-c3cccc(Cl)c3)nc2cc1OC (centres undefined) | > 42
COc1cccc(-c2nc(-c3c(C)noc3C)cc3[nH]c(C)cc23)c1OC | 20.4 (≈ 56.2 µM)
Fc1ccc(Nc2nc(-c3ccncc3F)nc3ccccc23)cc1F | < 1
CCCc1cc(C)[nH]c(=O)c1CNC(=O)c1cc(-c2ccnc(N3CCN(C)CC3)c2)cc2c1cnn2C(C)C | 64 (≈ 118 µM)
